Laboratory results: US8012944B2, “Method for treating cancer using IAP antisense oligomer and chemotherapeutic agent” (Pharmascience Inc., priority 2003, dated 2011)
Oligonucleotides are written 5' to 3', each unit as a sugar letter and its base; * is a phosphorothioate linkage, no mark a phosphodiester; rarer units and linkages stand in square brackets, end groups in braces. Plain capitals give the bases only. d = 2'-deoxy (DNA); m = 2'-O-methyl

What was measured:
XIAP mRNA [1] = test: XIAP mRNA knock-down in H460 cells (real-time RT-PCR / TaqMan); assay type: cell-based, human
Protocol: RNA was extracted from cells lysed in RLT buffer (QIAGEN, Valencia, Calif.), and purified using QIAGEN RNeasy columns/kits. Real-time quantitative PCR was performed on a Perkin-Elmer ABI 7700 Prism PCR machine. RNA was reverse transcribed and amplified according to the TaqMan Universal PCR Master Mix protocol of PE Biosystems, using primers and probes designed to specifically recognize XIAP, HIAP1, survivin, or GAPDH. For human survivin, the forward primer was 5′-[…]-3′ (SEQ ID NO: 263), the reverse primer was 5′-GAAAGGAAAGCGCAACCG-3′ (SEQ ID NO: 264), and the probe was 5′-(FAM)[…](TAMRA)-3′ (SEQ ID NO: 265). For human HIAP1, the forward primer was 5′-[…]-3′ (SEQ ID NO: 266), the reverse primer was 5′-[…]-3′ (SEQ ID NO: 267), and the probe was 5′-(FAM)[…](TAMRA)-3′ (SEQ ID NO: 268). For human XIAP, the forward primer was 5′-[…]-3′ (SEQ ID NO: 269), the reverse primer was 5′-[…]-3′ (SEQ ID NO: 270), and the probe was 5′-(FAM)[…](TAMRA)-3′ (SEQ ID NO: 271). For human GAPDH, the forward primer was 5′-GAAGGTGAAGGTCGGAGTC-3′ (SEQ ID NO: 272), the reverse primer was 5′-GAAGATGGTGATGGGATTC-3′ (SEQ ID NO: 273), and the probe was 5′-(JOE)[…](TAMRA)-3′ (SEQ ID NO: 274). FAM is 6-carboxyfluoroscein, JOE is 6-carboxy-4,5-dichloro-2,7-dimethoxyfluoroscein, and TAMRA is 6-carboxy-N,N,N′,N′-tetramethylrhodamine. FAM and JOE are 5′ reporter dyes, while TAMRA is a 3′ quencher dye.
Relative quantification of gene expression was performed as described in the PE Biosystems manual using GAPDH as an internal standard. The comparative Ct (cycle threshold) method was used for relative quantitation of IAP mRNA levels compared to GAPDH mRNA levels. Briefly, real-time fluorescence measurements were taken at each PCR cycle and the threshold cycle (Ct) value for each sample was calculated by determining the point at which fluorescence exceeded a threshold limit of 30 times the baseline standard deviation. The average baseline value and the baseline SD are calculated starting from the third cycle baseline value and stopping at the baseline value three cycles before the signal starts to exponentially rise. The PCR primers and/or probes for the specific IAPs were designed to span at least one exon-intron boundary separated by 1 kb or more of genomic DNA, to reduce the possibility of amplifying and detecting genomic DNA contamination. The specificity of the signal, and possible contamination from DNA, were verified by treating some RNA samples with either DNase or RNase, prior to performing the reverse transcription and PCR reaction steps.
A portion of the 96 nucleobase oligomers depicted in Table 2 were rescreened for their ability to knock-down XIAP mRNA in NCI-H460 cells at […] post-transfection.
One day prior to transfection, H460 cells were plated in 6- or 96-well tissue culture plates. Phosphorothioate antisense oligonucleotides were delivered into cells with Lipofectamine 2000 (Life Technologies) in the form of liposome-oligonucleotide complexes. Following a 4.5 or 6 h transfection, the transfection medium was replaced with RPMI medium containing 10% FBS, and the cells incubated for another 24 or 48 h.
Total RNA from H460 cells treated with liposome-oligonucleotide complexes for 6 hours was immediately isolated using RNeasy mini spin columns and DNase treatment (QIAGEN, Valencia, Calif.). Specific XIAP mRNA was measured using a real-time quantitative RT-PCR method. […]

XIAP mRNA [2] = test: as above; assay type: cell-based, human; settings: 2 × 2 MBO; NCI-H460 cells, 9 hours post-transfection; relative level (mock control 1.01)

Sequence | XIAP down-regulation H460 RNA (XIAP mRNA [1]) [%] | XIAP RNA (XIAP mRNA [2])
AGCACATTGTTTACAAGTG (antisense; sugars from the 5' end m2 d15 m2, backbone, methylation of C and T or U not given here; further chemistry not fully specified) [Code A11] | 68 | 0.36
TCTAGAGGGTGGCTCAGGA (antisense; sugars from the 5' end m2 d15 m2, backbone and T or U not given here; further chemistry not fully specified) [Code B1] | 66 | 0.34
TATATATTCTTGTCCCTTC (antisense; sugars from the 5' end m2 d15 m2, backbone, methylation of C and T or U not given here; further chemistry not fully specified) [Code A9] | 62 | 0.46
AAGCTTCTCCTCTTGCAGG (antisense; sugars from the 5' end m2 d15 m2, linkages s1 o16 s1 (s phosphorothioate, o phosphodiester), methylation of C not given here) [Code F10] | 51 | 0.64
TGTTCTAACAGATATTTGC (antisense; sugars from the 5' end m2 d15 m2, backbone, methylation of C and T or U not given here; further chemistry not fully specified) [Code G8] | 49 | 0.64
GAAACCACATTTAACAGTT (antisense; sugars from the 5' end m2 d15 m2, backbone, methylation of C and T or U not given here; further chemistry not fully specified) [Code H12] | 52 | 0.48
AAGTAAAGATCCGTGCTTC (antisense; sugars from the 5' end m2 d15 m2, backbone, methylation of C and T or U not given here; further chemistry not fully specified) [Code H7] | 63 | 0.49
TGAATTAATTTTTAATATC (antisense; sugars from the 5' end m2 d15 m2, backbone and T or U not given here; further chemistry not fully specified) [Code H1] | 13 | 0.87
AAAGCATAAAATCCAGCTC (antisense; sugars from the 5' end m2 d15 m2, backbone, methylation of C and T or U not given here; further chemistry not fully specified) [Code C8] | 16 | 1.01
AAAATTCTAAGTACCTGCA (mA*mAdAdAdTdTdCdTdAdAdGdTdAdCdCdTdGmC*mA; antisense) [Code A1] | 48 | 0.46
GTCAAATCATTAATTAGGA (antisense; sugars from the 5' end m2 d15 m2, backbone and T or U not given here; further chemistry not fully specified) [Code B2] | 55 | 0.45
ATTCGCACAAGTACGTGTT (antisense; sugars from the 5' end m2 d15 m2, backbone, methylation of C and T or U not given here; further chemistry not fully specified) [Code D12] | 77 | 0.23
AGATGGTATCATCAATTCT (antisense; sugars from the 5' end m2 d15 m2, backbone, methylation of C and T or U not given here; further chemistry not fully specified) [Code F9] | 19 | 0.97
ATGATCTCTGCTTCCCAGA (antisense; sugars from the 5' end m2 d15 m2, backbone and T or U not given here; further chemistry not fully specified) [Code E5] | 46 | 0.52
TTGTAGACTGCGTGGCACT (antisense; sugars from the 5' end m2 d15 m2, backbone and T or U not given here; further chemistry not fully specified) [Code B5] | 61 | 0.38
AATGTGAAACACAAGCAAC (antisense AANGNGAAACACAAGCAAC; sugars from the 5' end m2 d15 m2, linkages s1 o16 s1 (s phosphorothioate, o phosphodiester), the base at N not given here) [Code C3] | 43 | 0.55
TTTCTCAGTAGTTCTTACC (antisense; sugars from the 5' end m2 d15 m2, backbone, methylation of C and T or U not given here; further chemistry not fully specified) [Code D9] | 39 | 0.73
CTTGAAAGTAATGACTGTG (antisense; sugars from the 5' end m2 d15 m2, backbone, methylation of C and T or U not given here; further chemistry not fully specified) [Code C11] | 52 | 0.44
ACATTATATTAGGAAATCC (mA*mCdAdTdTdAdTdAdTdTdAdGdGdAdAdAdTmC*mC; antisense) [Code D3] | 30 | 0.68
AAGTCAGTTCACATCACAC (antisense; sugars from the 5' end m2 d15 m2, linkages s1 o16 s1 (s phosphorothioate, o phosphodiester), methylation of C not given here) [Code F11] | 64 | 0.36
GCAGAATAAAACTAATAAT (antisense; sugars from the 5' end m2 d15 m2, backbone and T or U not given here; further chemistry not fully specified) [Code D2] | 39 | 0.66
ATATTTCTATCCATACAGA (antisense; sugars from the 5' end m2 d15 m2, backbone, methylation of C and T or U not given here; further chemistry not fully specified) [Code G10] | 56 | 0.49
GGAAGATTTGTTGAATTTG (antisense; sugars from the 5' end m2 d15 m2, backbone and T or U not given here; further chemistry not fully specified) [Code F7] | 69 | 0.3
CTAAATACTAGAGTTCGAC (antisense; sugars from the 5' end m2 d15 m2, backbone and T or U not given here; further chemistry not fully specified) [Code G2] | 55 | 0.44
ATTCAAGGGATCAAAGTTG (antisense; sugars from the 5' end m2 d15 m2, backbone and T or U not given here; further chemistry not fully specified) [Code A2] | 58 | 0.42
